This note sets out measurements from patent publication US20060165840A1, “Fish feed” (Norsk Hydro ASA, priority 2002, published 2006).

Entries after “also recorded” stand apart in the source; their conditions may differ.

The data set in a line: Oxidative stability of salmon oil, induction period in weight increase experiment. The settings on record: salmon oil from fresh raw materials, antioxidant added to oil, versus control oil without additions.

Description: The oil stability was measured as the induction period (in days) in weight increase experiment. Oil A is salmon oil with 200 ppm d-α-tocopherol. Oil E is the control without additions.
To a sample of fresh fish oil prepared by gentle processing of fresh salmon filleting by-products (viscera, heads, framebones), we added 200 ppm vitamin E consisting of 89-99% d-α-tocopherol and 1-11% (β+γ+δ)-tocopherols (according to product specification), and a mixture of other/synergistic.
To another sample of the oil, we added 200 ppm vitamin E consisting of 14% d-α-tocopherol, 1% d-β-tocopherol, 62% d-γ-tocopherol and 23% d-δ-tocopherol, and a mixture of other/synergistic antioxidants similar to what was given to the first sample.
The oxidative stability of the three oils were tested by subjecting 3.0 g samples in 6.0 cm glass petri dishes to a temperature of 35° C. while exposed to air. The oxygen uptake caused by oxidation was recorded as a rapid weight increase of the samples when their antioxidative resistance was broken down, after an initial induction time (IP).

Turning to `Cc1c(C)c2c(c(C)c1O)CC[C@@](C)(CCC[C@H](C)CCC[C@H](C)CCCC(C)C)O2` [d-α-tocopherol], the “oil stability measured as induction period” value is “weakly prooxidant effects; also recorded: did not increase stability, but gave instead a small prooxidant effect”.
